Tests used:
HCT-116 = test: cell proliferation assay (MTS, 72 h); conditions: Homo sapiens, HCT-116, 72 h, read-out: CC50 HCT-116
SARS-CoV-2 = test: microbe, parasite or virus in culture; format: cell-based, severe acute respiratory syndrome coronavirus 2; conditions: Severe acute respiratory syndrome coronavirus 2, VeroE6/TMPRSS2, 24 h; read-out: SARS-CoV2 EC50
Z-138 = test: cell proliferation assay (MTS, 72 h); conditions: Homo sapiens, Z-138, 72 h, read-out: CC50 Z-138
LN-229 = test: cell proliferation assay (MTS, 72 h); conditions: Homo sapiens, LN-229, 72 h, read-out: CC50 LN-229
NCI-H460 = test: cell proliferation assay (MTS, 72 h); conditions: Homo sapiens, NCI-H460, 72 h, read-out: CC50 NCI-H460
Capan-1 = test: cell proliferation assay (MTS, 72 h); conditions: Homo sapiens, CAPAN-1, 72 h, read-out: CC50 Capan-1
U-87 MG cells = conditions: half-maximal cytotoxic concentration
[1] = system: subcutaneous Burkitt lymphoma xenografts; conditions: oral administration, mice; cited from earlier work
[2] = system: non-Hodgkin lymphoma (NHL) B-cell lines; conditions: large panel of NHL B-cell lines; read-out: antiproliferative IC50; cited from earlier work
DND-41 = test: cell proliferation assay (MTS, 72 h); conditions: DND41, 72 h, read-out: CC50 DND-41
VEEV (TC-83) = test: microbe, parasite or virus in culture; format: cell-based; conditions: Venezuelan equine encephalitis virus, U-87 MG, 18 h, read-out: VEEV (TC-83) EC50
K-562 = test: cell proliferation assay (MTS, 72 h); conditions: Homo sapiens, K562, 72 h, read-out: CC50 K-562
[3] = cell viability (AlamarBlue) in SARS-CoV-2-infected Vero E6/TMPRSS2 cells; format: cell-based; conditions: African green monkey, Vero E6/TMPRSS2 cells infected with SARS-CoV-2, half-maximal cytotoxic concentration, read-out: SARS-CoV2 CC50
HL-60 = test: cell proliferation assay (MTS, 72 h); conditions: Homo sapiens, HL-60, 72 h, read-out: CC50 HL-60
PIP4K2C = target: T1, PIP4K2C (Homo sapiens, UniProt Q8TBX8); conditions: cited from earlier work
T1 sequence (Q8TBX8 1-421): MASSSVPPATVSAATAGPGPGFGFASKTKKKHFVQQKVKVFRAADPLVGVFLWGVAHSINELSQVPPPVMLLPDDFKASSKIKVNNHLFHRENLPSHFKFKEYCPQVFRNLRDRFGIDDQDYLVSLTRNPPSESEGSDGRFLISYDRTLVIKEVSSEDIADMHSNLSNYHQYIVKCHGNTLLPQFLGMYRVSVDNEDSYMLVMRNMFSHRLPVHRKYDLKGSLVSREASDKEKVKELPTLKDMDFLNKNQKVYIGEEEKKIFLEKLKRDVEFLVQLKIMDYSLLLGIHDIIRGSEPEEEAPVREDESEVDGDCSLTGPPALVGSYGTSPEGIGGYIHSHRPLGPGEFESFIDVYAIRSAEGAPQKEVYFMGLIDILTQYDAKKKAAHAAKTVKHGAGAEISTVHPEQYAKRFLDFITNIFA

| SMILES | CC50 (HCT-116) | EC50 (SARS-CoV-2) | CC50 (Z-138) | CC50 (LN-229) | CC50 (NCI-H460) | CC50 (Capan-1) | VEEV (TC-83) CC50 (U-87 MG cells) | growth of subcutaneous Burkitt lymphoma xenografts [1] | IC50 [2] | CC50 (DND-41) | EC50 (VEEV (TC-83)) | CC50 (K-562) | CC50 [3] | CC50 (HL-60) | Kd (PIP4K2C) |
| --- | --- | --- | --- | --- | --- | --- | --- | --- | --- | --- | --- | --- | --- | --- | --- |
| Cc1cccc(/C=N/Nc2cc(N3CCOCC3)nc(OCCc3ccccn3)n2)c1 [Apilimod, reference compound] | < 20 nM | 190 nM | 60 nM | 80 ± 90 nM | < 20 nM | < 20 nM | >10000 nM | inhibits the growth | < 200 nM | 80 ± 20 nM | 1350 ± 490 nM | 330 ± 340 nM | 18400 ± 420 nM | 170 ± 20 nM |  |
| COc1ccc(-c2cnc3c(C#Cc4cccnc4)snc3c2)cc1OC [Compound 21, 6-(3,4-dimethoxyphenyl)-3-(pyridin-3-ylethynyl)isothiazolo[4,3-b]pyridine] | 820 ± 370 nM |  | 770 ± 60 nM | 1620 ± 500 nM | 2520 ± 1090 nM | 810 ± 110 nM | >10000 nM |  |  | 1750 ± 1020 nM | 750 ± 20 nM | 4240 ± 110 nM | > 20000 nM | 1470 ± 450 nM | 46 nM |
| FC(F)(F)c1ccccc1-c1nc(NCc2cccs2)c2ccccc2n1 [NIH-12848, reference compound] |  |  |  |  |  |  |  |  |  |  |  |  |  |  | 2800 nM |

Source: paper PMC12472322, “Structure–Activity Relationship Study of 3-Alkynyl-6-aryl-isothiazolo[4,3-b]pyridines as Dual Inhibitors of the Lipid Kinases PIKfyve and PIP4K2C” (Pharmaceuticals, 2025)
